Laboratory results reported in patent publication US10913727B2, “Modulators of the integrated stress pathway” (Calico Life Sciences LLC, priority 2016, dated 2021).

Test system: HEK293T cells carrying the ATF4 luciferase reporter
Test: ATF4-Luc assay, in vitro model of Vanishing Cell White Matter Disease (VWMD)
Type: cell-based
Conditions: Homo sapiens, HEK-293T, 1 μg/mL tunicamycin, 7 hours, One Glo luminescence
Procedure, shortened: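 Compound at 200 nM and tunicamycin at 1 μg/mL were given together for 7 h to HEK293T cells stably transduced with an ATF4 5′-UTR-driven firefly luciferase reporter. Read-out by luminescence, reported as EC50.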

`O=C(COc1ccc(Cl)c(F)c1)NC12CC(NC(=O)c3nc(C4CC4)cs3)(C1)C2` [Compound 590, N-{3-[2-(4-chloro-3-fluorophenoxy)acetamido]bicyclo[1.1.1]pentan-1-yl}-4-cyclopropyl-1,3-thiazole-2-carboxamide] gave an EC50 of 50 to 250 nM.

`O=C(COc1ccc(Cl)c(F)c1)NC12CC(NC(=O)c3c[nH]c4ccccc34)(C1)C2` [Compound 313, N-{3-[2-(4-chloro-3-fluorophenoxy)acetamido]bicyclo[1.1.1]pentan-1-yl}-1H-indole-3-carboxamide] showed an EC50 of 50 to 250 nM.

Compound `Cc1cc(C(=O)NC23CCC(NC(=O)COc4ccc(Cl)c(F)c4)(CC2)[C@H](O)C3)n(C)n1` (single isomer, unassigned) [Compound 486] has an EC50 of 50 to 250 nM.

With `CN(C)Cc1ccc(C(=O)NC23CC(NC(=O)COc4ccc(Cl)c(F)c4)(C2)C3)cc1` [Compound 546, N-{3-[2-(4-chloro-3-fluorophenoxy)acetamido]bicyclo[1.1.1]pentan-1-yl}-4-[(dimethylamino)methyl]benzamide] the EC50 was over 2000 nM.

In the case of `O=C(COc1ccc(Cl)c(F)c1)NC12CC(NC(=O)c3csc(N4CCOCC4)n3)(C1)C2` [Compound 771, N-{3-[2-(4-chloro-3-fluorophenoxy)acetamido]bicyclo[1.1.1]pentan-1-yl}-2-(morpholin-4-yl)-1,3-thiazole-4-carboxamide], the EC50 is reported as over 2000 nM.

With `Cc1cnc(C(=O)NC23CC(NC(=O)COc4ccc(Cl)c(Cl)c4)(C2)C3)cn1` [Compound 131, N-{3-[2-(3,4-dichlorophenoxy)acetamido]bicyclo[1.1.1]pentan-1-yl}-5-methylpyrazine-2-carboxamide] the EC50 was 50 to 250 nM.

`O=C(COc1ccc(Cl)c(F)c1)NC12CCC(NC(=O)c3ccccn3)(CC1)C[C@@H]2O` [Compound 727, N-{(3S)-4-[2-(4-chloro-3-fluorophenoxy)acetamido]-3-hydroxybicyclo[2.2.2]octan-1-yl}pyridine-2-carboxamide] showed an EC50 of under 50 nM.

Work on `COc1csc(C(=O)NC23CC(NC(=O)COc4ccc(Cl)c(F)c4)(C2)C3)c1` [Compound 857, N-{3-[2-(4-chloro-3-fluorophenoxy)acetamido]bicyclo[1.1.1]pentan-1-yl}-4-methoxythiophene-2-carboxamide] yielded an EC50 of 50 to 250 nM.

`CCCc1ncc(C(=O)NC23CC(NC(=O)COc4ccc(Cl)c(F)c4)(C2)C3)s1` [Compound 293, N-{3-[2-(4-chloro-3-fluorophenoxy)acetamido]bicyclo[1.1.1]pentan-1-yl}-2-propyl-1,3-thiazole-5-carboxamide] gave an EC50 of under 50 nM.

With `Cc1cc(C(=O)NC23CCC(NC(=O)COc4ccc(Cl)c(F)c4)(C2)C3)sn1` [Compound 710, N-{4-[2-(4-chloro-3-fluorophenoxy)acetamido]bicyclo[2.1.1]hexan-1-yl}-3-methyl-1,2-thiazole-5-carboxamide] the EC50 was 250 to 1000 nM.

Compound `O=C(COc1ccc(Cl)c(F)c1)NC12CC(Nc3cncc(-c4ccc(Cl)cc4)n3)(C1)C2` [Compound 395, 2-(4-chloro-3-fluorophenoxy)-N-(3-{[6-(4-chlorophenyl)pyrazin-2-yl]amino}bicyclo[1.1.1]pentan-1-yl)acetamide] has an EC50 of over 2000 nM.

`Cn1nccc1C(=O)NC12CC(NC(=O)COc3ccc(Cl)c(F)c3)(C1)C2` [Compound 388, N-{3-[2-(4-chloro-3-fluorophenoxy)acetamido]bicyclo[1.1.1]pentan-1-yl}-1-methyl-1H-pyrazole-5-carboxamide] showed an EC50 of 250 to 1000 nM.

For `CC(C)Oc1ccc(C(=O)NC23CC(NC(=O)COc4ccc(Cl)cc4)(C2)C3)nc1` [Compound 185, N-{3-[2-(4-chlorophenoxy)acetamido]bicyclo[1.1.1]pentan-1-yl}-5-[(propan-2-yl)oxy]pyridine-2-carboxamide], the EC50 was 250 to 1000 nM.

Compound `O=C(COc1ccc2c(c1)OC(F)(F)O2)NC12CC(NC(=O)c3cnc(C(F)F)cn3)(C1)C2` [Compound 376, N-(3-{2-[(2,2-difluoro-2H-1,3-benzodioxol-5-yl)oxy]acetamido}bicyclo[1.1.1]pentan-1-yl)-5-(difluoromethyl)pyrazine-2-carboxamide] has an EC50 of 50 to 250 nM.

With `Cn1ncc2cccc(C(=O)NC34CC(NC(=O)COc5ccc(Cl)c(F)c5)(C3)C4)c21` [Compound 786, N-{3-[2-(4-chloro-3-fluorophenoxy)acetamido]bicyclo[1.1.1]pentan-1-yl}-1-methyl-1H-indazole-7-carboxamide] the EC50 was over 2000 nM.

For `O=C(COc1ccc(Cl)c(F)c1)NC12CCC(NC(=O)c3ccccn3)(CC1)C(O)C2` (stereo not drawn) [Compound 167, N-{4-[2-(4-chloro-3-fluorophenoxy)acetamido]-2-hydroxybicyclo[2.2.2]octan-1-yl}pyridine-2-carboxamide], the EC50 was 50 to 250 nM.

`CC(C)(C)OC(=O)N1CCC=C(c2ncc(C(=O)NC34CC(NC(=O)COc5ccc(Cl)c(F)c5)(C3)C4)o2)C1` [Compound 150, tert-butyl 5-[5-({3-[2-(4-chloro-3-fluorophenoxy)acetamido]bicyclo[1.1.1]pentan-1-yl}carbamoyl)-1,3-oxazol-2-yl]-3,6-dihydropyridine-1(2H)-carboxylate] showed an EC50 of 50 to 250 nM.

In the case of `NS(=O)(=O)c1ccc(C(=O)NC23CC(NC(=O)COc4ccc(Cl)c(F)c4)(C2)C3)cn1` [Compound 325, N-{3-[2-(4-chloro-3-fluorophenoxy)acetamido]bicyclo[1.1.1]pentan-1-yl}-6-sulfamoylpyridine-3-carboxamide], the EC50 is reported as over 2000 nM.

Work on `CCCc1nc(C(=O)NC23CCC(NC(=O)COc4ccc(Cl)c(F)c4)(CC2)C(O)C3)cs1` (stereo not drawn) [Compound 502, N-{4-[2-(4-chloro-3-fluorophenoxy)acetamido]-3-hydroxybicyclo[2.2.2]octan-1-yl}-2-propyl-1,3-thiazole-4-carboxamide] yielded an EC50 of under 50 nM.

Compound `Cn1cnc2noc(C(=O)NC34CCC(NC(=O)COc5ccc(Cl)c(F)c5)(CC3)C(O)C4)c21` (stereo not drawn) [Compound 412, N-{4-[2-(4-chloro-3-fluorophenoxy)acetamido]-3-hydroxybicyclo[2.2.2]octan-1-yl}-4-methyl-4H-imidazo[4,5-c][1,2]oxazole-3-carboxamide] has an EC50 of over 2000 nM.

`CN(C(=O)c1cnc(C(F)F)cn1)C12CC(NC(=O)COc3ccc(Cl)c(F)c3)(C1)C2` [Compound 352, N-{3-[2-(4-chloro-3-fluorophenoxy)acetamido]bicyclo[1.1.1]pentan-1-yl}-5-(difluoromethyl)-N-methylpyrazine-2-carboxamide] gave an EC50 of 50 to 250 nM.

With `Cc1cnn2ccc(NC34CC(NC(=O)COc5ccc(Cl)c(F)c5)(C3)C4)nc12` [Compound 610, 2-(4-chloro-3-fluorophenoxy)-N-{3-[(3-methylpyrazolo[1,5-a]pyrimidin-5-yl)amino]bicyclo[1.1.1]pentan-1-yl}acetamide] the EC50 was 1000 to 2000 nM.

Compound `CC(=O)N1CCC(c2ncc(C(=O)NC34CC(NC(=O)COc5ccc(Cl)c(Cl)c5)(C3)C4)o2)CC1` [Compound 149, 2-(1-acetylpiperidin-4-yl)-N-{3-[2-(3,4-dichlorophenoxy)acetamido]bicyclo[1.1.1]pentan-1-yl}-1,3-oxazole-5-carboxamide] has an EC50 of 1000 to 2000 nM.

For `Cc1ccc(C(=O)NC23CCC(NC(=O)COc4ccc(Cl)c(F)c4)(CC2)CC3O)cn1` (stereo not drawn) [Compound 228, N-{4-[2-(4-chloro-3-fluorophenoxy)acetamido]-2-hydroxybicyclo[2.2.2]octan-1-yl}-6-methylpyridine-3-carboxamide], the EC50 was over 2000 nM.

In the case of `Cc1cnc2cc(C(=O)NC34CC(NC(=O)COc5ccc(Cl)c(F)c5)(C3)C4)nn2c1` [Compound 833, N-{3-[2-(4-chloro-3-fluorophenoxy)acetamido]bicyclo[1.1.1]pentan-1-yl}-6-methylpyrazolo[1,5-a]pyrimidine-2-carboxamide], the EC50 is reported as 1000 to 2000 nM.

`CCc1cnc(C(=O)NC23CC(NC(=O)COc4ccc(Cl)c(Cl)c4)(C2)C3)cn1` [Compound 711, N-{3-[2-(3,4-dichlorophenoxy)acetamido]bicyclo[1.1.1]pentan-1-yl}-5-ethylpyrazine-2-carboxamide] was tested, and the EC50 was under 50 nM.

In the case of `N#Cc1ccc(C(=O)NC23CCC(NC(=O)COc4ccc(Cl)c(F)c4)(CC2)CC3O)cc1` (stereo not drawn) [Compound 210, N-{4-[2-(4-chloro-3-fluorophenoxy)acetamido]-2-hydroxybicyclo[2.2.2]octan-1-yl}-4-cyanobenzamide], the EC50 is reported as 250 to 1000 nM.

`O=C(COc1ccc(Cl)c(F)c1)NC12CC(NC(=O)c3ccc(OC(F)(F)F)cn3)(C1)C2` [Compound 117, N-{3-[2-(4-chloro-3-fluorophenoxy)acetamido]bicyclo[1.1.1]pentan-1-yl}-5-(trifluoromethoxy)pyridine-2-carboxamide] showed an EC50 of under 50 nM.

Compound `O=C(COc1ccc(Cl)c(Cl)c1)NC12CC(NC(=O)c3cc(CO)ccn3)(C1)C2` [Compound 166, N-{3-[2-(3,4-dichlorophenoxy)acetamido]bicyclo[1.1.1]pentan-1-yl}-4-(hydroxymethyl)pyridine-2-carboxamide] has an EC50 of 50 to 250 nM.

In the case of `O=C(COc1ccc(Cl)c(F)c1)NC12CC(NC(=O)c3ccc4cnccc4n3)(C1)C2` [Compound 659, N-{3-[2-(4-chloro-3-fluorophenoxy)acetamido]bicyclo[1.1.1]pentan-1-yl}-1,6-naphthyridine-2-carboxamide], the EC50 is reported as 50 to 250 nM.

In the case of `O=C(COc1ccc(Cl)c(F)c1)NC12CC(NC(=O)c3ccc4cccnc4n3)(C1)C2` [Compound 669, N-{3-[2-(4-chloro-3-fluorophenoxy)acetamido]bicyclo[1.1.1]pentan-1-yl}-1,8-naphthyridine-2-carboxamide], the EC50 is reported as 250 to 1000 nM.

`Cc1nn(C)c2c(NC34CC(NC(=O)COc5ccc(Cl)c(F)c5)(C3)C4)ncnc12` [Compound 426, 2-(4-chloro-3-fluorophenoxy)-N-{3-[(1,3-dimethyl-1H-pyrazolo[4,3-d]pyrimidin-7-yl)amino]bicyclo[1.1.1]pentan-1-yl}acetamide] gave an EC50 of over 2000 nM.

For `CCc1cc(C(=O)NC23CCC(NC(=O)COc4ccc(Cl)c(F)c4)(CC2)C(O)C3)no1` (stereo not drawn) [Compound 606, N-{4-[2-(4-chloro-3-fluorophenoxy)acetamido]-3-hydroxybicyclo[2.2.2]octan-1-yl}-5-ethyl-1,2-oxazole-3-carboxamide], the EC50 was 50 to 250 nM.
